# From patent publication US8598132B2, “Glycosylated indolocarbazoles, method for obtaining same and uses thereof” (Universidad de Oviedo, priority 2008, dated 2013)
# Key:
# A549 (lung) = assay: SRB anti-tumour (growth inhibition) assay, A549; type: cell-based; conditions: Homo sapiens, 48 h exposure, read-out: GI50 (concentration inhibiting 50% of cell growth)
# Description: The compounds generated were tested against a series of cell lines from tumours. It quantitatively determined the cell growth and the viability, using a colorimetric assay type, using the reaction with sulforhodamine B (SRB), according to the technique described by Faircloth et al. (Journal of Tissue and Culture Methods 1988, 11, 201-205).
# 96-well microtitre plates are inoculated with cells (5×10^3 cells per well) in aliquots of 195 μl of medium, incubating them during 18 h, in a medium without added compound, to allow the cells to adhere to the surface. Next, the compounds to be tested are added, in samples of 5 μl, at a range of concentrations of 10 to 10^−8 μg/ml, dissolved in DMSO/EtOH (0.2% in PS buffer). After 48 h exposure, the anti-tumour effect is measured using the Sulforhodamine B (SRB) technique: the cells are fixed adding 50 μl of cold […] (50%) (w/v) and it is incubated for 60 min. at 4° C. The plates are washed with deionized water and dried. 100 μl of SRB solution (0.4% w/v in 1% acetic acid) to each well and it is incubated during 10 min. at ambient temperature. The non-bound SRB is eliminated, washing with 1% acetic acid. The plates are air dried and the bound colorant is dissolved with Tris buffer. The optical densities are read in an automatic plate spectrophotometer reader at a wavelength of 490 nm.
# For the compounds of formula (III), (IV), (V), (VI), (VII), (VIII), (IX) and the compounds of formula (XII), (XIII), (XIV), (XV), (XVI) and (XVIII).
# p38a = biological target: T1, p38a (Homo sapiens, UniProt Q16539); assay: LabChip (Caliper) kinase assay, p38a; type: biochemical; conditions: read-out: remaining kinase activity (in %) / percentage of inhibition; for inhibition at 0.01 µM: compound at 10 nM; for inhibition at 0.1 µM: compound at 100 nM
# T1 construct: purchased Carna Biosciences
# Description: The analysis of kinase activity described here was performed using LabChip (Caliper Life Sciences), specifically the Caliper LC3000 and the EZ Reader II instruments.
# The kinase assay used measures the conversion of a fluorescent peptide (substrate) to a phosphorylated product. The reaction mixture, in a microplate well, is introduced by a capillary in a chip where the non-phosphorylated substrate and the phosphorylated product are separated by […]. The intensity of the fluorescent signal over time is related to the reaction progress. The phosphorylated product migrates quicker than the non-phosphorylated substrate and the signals of the two forms of the peptide appear as differentiated peaks. The Caliper determines the peak height and calculates the ratio of product to the peak sum (P/(P+S)). This value is used to compare wells with compounds and wells with controls and thus determine the % of inhibition for the given product.
# The followings kinases were used for the enzymatic inhibition studies, between brackets the value of the Michaelis-Menten constant, Km, of the ATP (Adenosine triphosphate) for each kinase, in μM: obtained from Carna Biosciences: MAPKAPK2 (4.6), AurA (3.6), AurB (5), PKCζ (3.8), RSK1 (23.3), PRAK (5), Erk1 (33.4), PKD2 (32.1), CK1d (16.3), CHK1 (33), ABL (61.7), FYN (36), LYNa (17), CHK2 (57.8), MET (79.5), LCK (28.5), SRC (38), GSK3β (7.3), Erk2 (62.1), PKACα (1.7), AKT2 (186.1), INSR (871.8), p38a (396.5), AKT1(48), MSK1 (21.2), PKCβ2 (84.8), ROCK2 (3.3), PIM2 (4.9), AMPK (38.6), KDR (164.8), IRAK4 (196.5), SGK1 (121.8), SYK (33.5); obtained from Invitrogen: CDK2 (57.6), BTK (123), HGK (80); obtained from Upstate: MST2 (36.6), PKGα (16), PAK2 (1.9), IGF1R (320), FGFR1 (171), MARK1 (33), CAMK2δ (22.4), c-TAK1 (66), DYRK1a (18.1), CaMK4 (3.9), FLT3 (350), c-Raf (6.2), P70S6K (95).
# The compounds were dissolved in 100% DMSO and were diluted at 25 times the final concentration desired for the assay. In the case of the determination of Cl50, serial dilutions were made to reach eight concentrations and give rise to the inhibition curve. 1 μL of each concentration is transferred, in duplicate to a 384-well microplate. 12 μL of enzymatic buffer is added to each well containing purified kinase (several suppliers as indicated above), 100 mM HEPES, pH 7.5, 1 mM DTT (Calbiochem), 0.002% Brij-35 (Sigma) and also in presence of 10 mM MgCl2 as cofactor, except for INSR and IRAK4 wherein 10 mM MnCl2 is used instead of MgCl2. For the kinases CAMK26 and CAMK4, 1 mM CaCl2 and 6.7 μg/mL of calmodulin are also added. For KDR kinase, 0.05% of the CHAPSO detergent is added. For the c-Raf kinase, 10 mM MnCl2 is added. For PKCβ2 0.02 μg/mL of PS/PMA is added. For PKGα se 10 μM of cGMP (cyclic guanosine monophosphate) is added. The compound and the enzyme are left for 15 minutes preincubation and, then, the following are added to each well: 12 μL of peptide buffer/ATP containing 100 mM HEPES, pH 7.5, 1.5 μM peptide marker with fluorescein (specific for the corresponding kinase), ATP (at concentration KM), and 0.002% Brij-35 to start the reaction. Generally, the reactions are incubated for 1-1.5 h at ambient temperature to obtain an adequate conversion (15-40%) of the peptide to the phosphorylated product. The reactions were ended by the addition of 45 μL of buffer containing 0 mM EDTA. The microplates were read by the LabChip 3000 using a 12-channel LabChip. The P/(P+S) values were obtained as described above and the CI50 curves were generated using XIfit. […]
# T1 sequence (Q16539 whole entry): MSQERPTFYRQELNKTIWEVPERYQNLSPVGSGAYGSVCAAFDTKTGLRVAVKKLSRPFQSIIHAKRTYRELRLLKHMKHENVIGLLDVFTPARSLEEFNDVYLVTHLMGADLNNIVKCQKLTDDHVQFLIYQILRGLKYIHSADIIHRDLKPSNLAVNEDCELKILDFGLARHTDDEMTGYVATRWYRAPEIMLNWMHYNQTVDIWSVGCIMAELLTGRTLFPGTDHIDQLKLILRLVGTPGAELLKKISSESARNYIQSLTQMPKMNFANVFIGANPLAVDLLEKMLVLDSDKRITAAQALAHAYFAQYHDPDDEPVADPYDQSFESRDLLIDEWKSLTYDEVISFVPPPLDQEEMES
Structure (SMILES),GI50 (A549 (lung)),inhibition at 0.01 µM (p38a),inhibition at 0.1 µM (p38a)
"C[C@@H]1O[C@@H](n2c3ccccc3c3c4c(c5c6ccccc6[nH]c5c32)C(=O)NC4=O)C[C@H](O)[C@H]1O [formula (IV), N^13-1′-β-L-olivosylarcyriaflavin]",8.79 µM,-2%,-2%
"C[C@]12O[C@H](C[C@H](O)[C@H]1O)n1c3ccccc3c3c4c(c5c6ccccc6n2c5c31)C(=O)NC4=O [formula (VIII), N^12-5′(S)-N^13-1′-(R)-L-olivosylarcyriaflavin]",5.73 µM,–,–
"C[C@H]1O[C@@H](n2c3ccccc3c3c4c(c5c6ccccc6[nH]c5c32)CNC4=O)C[C@@H](O)[C@@H]1O [formula (XV), N^13-1′-β-D-olivosyl-k252c]",4.98 µM,-1%,-3%
"C[C@]12O[C@H](C[C@@H](O)[C@H]1O)n1c3ccccc3c3c4c(c5c6ccccc6n2c5c31)CNC4=O [formula (XVIII), N^12-5′(S)-N^13-1′-(R)-L-digitoxosyl-k252c]",1.96 µM,–,–
"C[C@]12O[C@H](C[C@H](O)[C@H]1O)n1c3ccccc3c3c4c(c5c6ccccc6n2c5c31)CNC4=O [formula (XVII), N^12-5′(S)-N^13-1′-(R)-L-olivosyl-k252c]",1.02 µM,–,–
"C[C@@H]1O[C@@H](n2c3ccccc3c3c4c(c5c6ccccc6[nH]c5c32)CNC4=O)[C@H](O)[C@H](O)[C@H]1O [formula (XII), N^13-1′-β-L-rhamnosyl-k252c]",2.84 µM,-1%,0%
"C[C@@H]1O[C@@H](n2c3ccccc3c3c4c(c5c6ccccc6[nH]c5c32)CNC4=O)C[C@@H](O)[C@H]1O [formula (XIV), N^13-1′-β-L-digitoxosyl-k252c]",3.4 µM,-1%,-2%
"C[C@]12O[C@H](C[C@@H](O)[C@H]1O)n1c3ccccc3c3c4c(c5c6ccccc6n2c5c31)C(=O)NC4=O [formula (IX), N^12-5′(S)-N^13-1′-(R)-L-digitoxosylarcyriaflavin]",5.51 µM,–,–
"C[C@@H]1O[C@@H](n2c3ccccc3c3c4c(c5c6ccccc6[nH]c5c32)CNC4=O)C[C@H](O)[C@H]1O [formula (XIII), N^13-1′-β-L-olivosyl-k252c]",1.56 µM,-2%,-3%
"C[C@]12O[C@H]([C@H](O)[C@H](O)[C@H]1O)n1c3ccccc3c3c4c(c5c6ccccc6n2c5c31)C(=O)NC4=O [formula (VII), N^12-5′(S)-N^13-1′-(R)-L-rhamnosylarcyriaflavin]",2.04 µM,–,–
"C[C@]12O[C@H]([C@H](O)[C@H](O)[C@H]1O)n1c3ccccc3c3c4c(c5c6ccccc6n2c5c31)CNC4=O [formula (XVI), N^12-5′(S)-N^13-1′-(R)-L-rhamnosyl-k252c]",0.61 µM,–,–
"C[C@@H]1O[C@@H](n2c3ccccc3c3c4c(c5c6ccccc6[nH]c5c32)C(=O)NC4=O)C[C@@H](O)[C@H]1O [formula (V), N^13-1′-β-L-digitoxosylarcyriaflavin]",4.41 µM,1%,-2%
"C[C@@H]1O[C@@H](n2c3ccccc3c3c4c(c5c6ccccc6[nH]c5c32)C(=O)NC4=O)[C@H](O)[C@H](O)[C@H]1O [formula (III), N^13-1′-β-L-rhamnosylarcyriaflavin]",4.18 µM,0%,-1%
"C[C@H]1O[C@@H](n2c3ccccc3c3c4c(c5c6ccccc6[nH]c5c32)C(=O)NC4=O)C[C@@H](O)[C@@H]1O [formula (VI), N^13-1′-β-D-olivosylarcyriaflavin]",2.21 µM,-1%,-1%
